Source: patent publication US10709688B2, “Agent for treating synucleinopathy” (TOHOKU UNIVERSITY, priority 2016, dated 2020)

Tests used:
FABP3 = FABP3 (Homo sapiens (Human), UniProt P05413); experiment: Evaluation of FABP3 ligand activity, fluorescent displacement assay using 1,8-ANS; assay type: binding; details: 1,8-ANS displacement; average of two measurements
Protocol: Adopted for evaluation in the evaluation of FABP3 ligand activity was a fluorescent displacement assay using 1,8-ANS (1-anilino-8-naphthalenesulfonic acid). Fluorescent materials such as 1,8-ANS are characterized by an increase in the fluorescent intensity under a hydrophobic environment. […] Ethanol was used as the dilution solvent of the compounds.
To each well was added as a detection reagent, a 1,8-ANS (ALDRICH) solution (10 μM, ethanol/sodium phosphate buffer solution=1:4 v/v, 25 μL), and ethanol solutions of compounds diluted to different concentrations were added in an amount of 10 μL each (the final ethanol concentration was 15%). The plate was shaken for 10 sec. in the plate reader and incubated for 10 min. at room temperature. […] Used for measurement was ARVO™ X One by PerkinElmer Japan.
(§1) Measurement was performed twice each, and the average was adopted as the result. The software, Origin, available from Light Stone was used for calculating IC50.

FABP4 = FABP4 (Homo sapiens (Human), UniProt P15090); experiment: Evaluation of FABP4 ligand activity, fluorescent displacement assay using 1,8-ANS (Cayman assay kit); assay type: binding; details: 1,8-ANS displacement; average of two measurements
Chain of FABP4 (P15090 whole entry): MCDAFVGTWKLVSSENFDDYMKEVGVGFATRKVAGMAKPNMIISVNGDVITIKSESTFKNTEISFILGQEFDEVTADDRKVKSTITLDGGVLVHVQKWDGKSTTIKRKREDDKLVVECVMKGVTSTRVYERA
Protocol: An evaluation of FABP4 was performed using a fluorescent displacement assay using 1,8-ANS, similar to FABP3. Used in the evaluation of FABP4 was an assay kit (FABP4 Inhibitor/Ligand Screening Assay Kit) available from Cayman Chemical Company. Ethanol was used as a solvent for dissolving the compound, and an arachidonic acid which comes with the kit was used as a positive control. The measurement procedure was performed similarly to the aforementioned FABP3 assay.
as §1

[1] = system: MPTP Parkinson's disease model C57BL6 N mice; experiment: Test Example 7: cognitive function in MPTP Parkinson's disease model animal; assay type: in vivo, mouse; details: 1.0 mg/kg p.o. daily 2 weeks, four weeks after MPTP, FIG. 7
Protocol: 1-Methyl-4-phenyl-1,2,3,6-tetrahydropyridine (MPTP, 25 mg/kg, i.p., purchased from Sigma-Aldrich (St Louis, Mo.)), which is a dopamine neurotoxin, was administered once every day for 5 consecutive days to a 10 week old male C57BL6 N mice, to prepare a Parkinson's disease model animal. From 24 hours after the final administration of MPTP, the solvent or FABP3 ligand (compound of Example 3, 1.0 mg/kg, p.o., each group n=7) was administered once every day for 2 weeks. Four weeks after administration of MPTP, at which time cognitive dysfunction was observed, the cognitive function was evaluated by a novel object recognition test.

[2] = system: MPTP Parkinson's disease model mice; experiment: Test Example 8: motor function in MPTP Parkinson's disease model animal; assay type: in vivo, mouse; details: 1.0 mg/kg p.o. daily 2 weeks, three weeks after MPTP, FIG. 8
Protocol: From 24 hours after the final administration of MPTP, the solvent or FABP3 ligand (compound of Example 3) (1.0 mg/kg, p.o., each group n=7) was administered once every day for 2 weeks. Three weeks after administration of MPTP, at which time motor dysfunction was observed, the motor function was evaluated by a rotarod test and beam walking test. […] It was confirmed in both tests that the ligand administered group was fully recovered from the motor dysfunction that developed after MPTP administration.

[3] = system: MPTP Parkinson's disease model C57BL6 N mice; experiment: Test Example 9: motor function in MPTP Parkinson's disease model mice; assay type: in vivo, mouse; details: p.o. once every day (Example 1: 0.1, 0.5 or 1.0 mg/kg; others 1.0 mg/kg), three weeks after MPTP, FIG. 9
Protocol: MPTP (25 mg/kg, i.p.) was administered once every day for 5 consecutive days to a 10 week old male C57BL6 N mice to prepare a Parkinson's disease model mice. […] Three weeks after administration of MPTP, at which time motor dysfunction was observed, the motor function was evaluated by a rotarod test and beam walking test.

[4] = system: MPTP Parkinson's disease model C57BL6 N mice; experiment: Test Example 10: cognitive function in MPTP Parkinson's disease model mice; assay type: in vivo, mouse; details: p.o. once every day (Example 1: 0.1, 0.5 or 1.0 mg/kg; others 1.0 mg/kg), four weeks after MPTP, FIG. 10
Protocol: MPTP (25 mg/kg, i.p.) was administered once every day for 5 consecutive days to a 10 week old male C57BL6 N mice to prepare a Parkinson's disease model mice. […] Four weeks after administration of MPTP, at which time cognitive dysfunction was observed, the cognitive function was evaluated by a novel object recognition test and a passive avoidance test. The passive avoidance test was performed by putting a mouse in a light room and applying electric shock (0.3 mA, 2 second) on the mouse when it entered the dark room in the train run. Twenty four hours later, the mouse was put in the light room again, and the time until the mouse entered the dark room was measured.

[5] = system: dopamine neurons (TH positive cells) of substantia nigra, MPTP model mice; experiment: Test Example 11: dopamine neuroprotection in MPTP Parkinson's disease model mice; assay type: in vivo, mouse; details: p.o. once every day (Example 1: 0.1, 0.3 or 1.0 mg/kg; others 1.0 mg/kg), four weeks after MPTP, FIG. 11
Protocol: (§2) MPTP (25 mg/kg, i.p.) was administered once every day for 5 consecutive days to a 10 week old male C57BL6 N mice to prepare a Parkinson's disease model mice. […] Four weeks after MPTP administration, at which time a loss in the dopamine neuron and formation of α-synuclein multimers are observed, the mouse was fixed under perfusion to prepare a brain slice 50 μm thick that includes a substantia nigra region.

[6] = system: TH and α-synuclein double positive cells of substantia nigra, MPTP model mice; experiment: Test Example 12: suppression of α-synuclein aggregation in MPTP Parkinson's disease model mice; assay type: in vivo, mouse; details: p.o. once every day (Example 1: 0.1, 0.3 or 1.0 mg/kg; others 1.0 mg/kg), four weeks after MPTP, FIG. 12
Protocol: as §2, with “observed, a” for “observed, the”, “region. The brain slice was reacted with an anti-TH antibody (mouse monoclonal antibody 22941 produced by Immunostar, 1:1000) and an anti-α-synuclein antibody (rabbit polyclonal antibody SC-7011-R produced by Santa Cruz, 1:200) and detected by a fluorescence-labeled, secondary antibody (Alexa 488 anti-rabbit IgG (produced by Jackson ImmunoResearch, 1:500)) to evaluate the number of positive cells.” for “region.”

GST-FABP3 = GST-FABP3 (Mus musculus (Mouse), UniProt P11404); experiment: Test Example 13: affinity of FABP ligand using ANS, GST-FABP3; assay type: binding; details: ANS fluorescence; average of three measurements±SE; read-out: Kd value of FABP against the ligands, GST-FABP3
Chain of GST-FABP3 (P11404 whole entry): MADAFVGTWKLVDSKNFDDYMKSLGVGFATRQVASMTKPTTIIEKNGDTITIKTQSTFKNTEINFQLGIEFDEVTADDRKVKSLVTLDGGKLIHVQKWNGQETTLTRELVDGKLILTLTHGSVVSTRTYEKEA
Protocol: Pt: FABP protein concentration (=400 nM);

GST-FABP4 = GST-FABP4 (Mus musculus (Mouse), UniProt P04117); experiment: Test Example 13: affinity of FABP ligand using ANS, GST-FABP4; details: read-out: Kd value of FABP against the ligands, GST-FABP4; ANS fluorescence; average of three measurements±SE
Chain of GST-FABP4 (P04117 whole entry): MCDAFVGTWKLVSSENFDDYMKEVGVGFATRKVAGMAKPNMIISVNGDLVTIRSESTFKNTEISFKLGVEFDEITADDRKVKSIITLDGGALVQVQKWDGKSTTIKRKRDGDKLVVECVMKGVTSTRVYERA
Protocol: After GST-FABP3 and GST-FABP4 were respectively expressed in the Escherichia coli [BL21 (DE3) strain], affinity purification was performed using a glutathione column.
Purification of the GST binding protein was performed using a GST purification kit (Takara Bio USA). After the Escherichia coli was recovered by centrifuging, the accessory extraction buffer and aluminum oxide powder were added and the mixture was ground in the mortar. The centrifuged supernatant was added to the accessory glutathione column and left stationary on ice for 30 min. Then, the supernatant in the column was thrown away, and the remaining matter was washed with the extraction buffer, and subsequently subjected to elution using an elution buffer including glutathione. The protein concentration of the elution product was calculated from the absorbance at 280 nm, and used as an ANS assay.
The fluorescence intensity at the respective ligand concentrations was converted to a relative value (%) against the ANS fluorescence intensity under the absence of ligand, then the dissociation constant Kd(nM) was calculated by a nonrecurring analysis using the following equation.
F: Relative fluorescence intensity at a certain condition (%);
Ka: Reciprocal of dissociation constant Kd (nM^−1);
Fmax*: Relative fluorescence intensity when FABP is fully occupied by ligands.

Chain of FABP3 (P05413 whole entry, species assumed): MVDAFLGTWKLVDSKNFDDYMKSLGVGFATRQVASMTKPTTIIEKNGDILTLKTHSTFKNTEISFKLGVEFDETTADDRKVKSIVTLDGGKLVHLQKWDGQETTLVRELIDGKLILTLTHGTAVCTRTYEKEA

For O=C(O)CCCOc1ccccc1-c1cc(-c2ccccc2)n(-c2ccc(Cl)c(Cl)c2)n1 [Example 3, 4-(2-(1-(3,4-Dichlorophenyl)-5-phenyl-1H-pyrazol-3-yl)phenoxy)butanoic acid], the IC50 (FABP3) was 280 nM, the IC50 (FABP4) was 1660 nM and the “novel object recognition test, cognitive dysfunction” value [1] was “such dysfunction was not observed”. For the same molecule, the “beam walking test, number of footslips” value [2] was “entirely recovered”, the “rotarod test, Latency” value [2] was “recovered fully” and the “beam walking test, number of footslips” value [3] was “improved significantly”. For the same molecule, the “rotarod test, Latency” value [3] was “improved significantly”, the “cognitive function by novel object recognition test and passive avoidance test” value [4] was “significant effects” and the “number of TH positive cells (dopamine neurons)” value [5] was “improved significantly”. The “number of TH and α-synuclein double positive cells” value [6] was “tendency towards improvement”, the Kd (GST-FABP3) was 2220 ± 104 nM and the Kd (GST-FABP4) was 6670 ± 1400 nM.
